Common to all, as to test: NCI tumour cell line growth inhibition, 48 h
Assay [1] deals with MOLT-4 leukemia.
Assay [2] has as its system HT29 colon.
The subject of assay [3] is OVCAR-3 ovarian.
Assay [4] has as its system RXF 393 renal.
Assay [5] relates to DU-145 prostate.
Assay [6] concerns MDA-MB-435.
The subject of assay [7] is TK-10 renal.
For assay [8], the system named is CCRF-CEM leukemia.
Assay [9] relates to 786-0 renal.
Assay [10] concerns SNB-19 CNS.

This is an account of results in PubChem BioAssay (NCI).

Where “and” joins values, the source holds several entries; their conditions need not be identical. Equal entries are not always repeated.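 The compound was tested at five concentrations on cells cultured in 96-well plates, with a 48-hour exposure period. GI50 = concentration required for 50% inhibition of growth. TGI marks complete inhibition of growth.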

As for `COc1ccc(N2CCN(c3nc(-c4ccccn4)nc4sc5c(c34)CCCCCC5)CC2)cc1`, the GI50 in [1] was 3.26 µM; in assay [2], 5.06 µM; in [3], 8.61 µM; in [4] it was more than 100 µM; in [5] it was 27.9 µM; in assay [6] it was 5.49 µM. For the same compound, the GI50 is more than 100 µM in assay [7], 4.32 µM in assay [8] and 8.45 µM in assay [9]. The TGI in assay [1], in assay [2], in assay [3], in [4], in assay [5] and in assay [6] was more than 100 µM throughout. The TGI in assay [7], in assay [8] and in assay [9] was more than 100 µM each time.

In the case of `CCCCCCCN(CCCCCCC)C(=N)c1ccc(OC)c2ccccc12`, the GI50 is 1.6 µM in assay [3]; 1.38 µM in [10]; 1.3 µM in assay [4]; 1.38 µM in [5]; 1.48 µM in [6]; 1.46 µM in assay [7]. The GI50 is 1.76 µM in assay [8] and 1.31 µM in [9]. In addition, the TGI in assay [3] is 3.17 µM; in assay [10] it was 2.93 µM; in assay [4], 3.01 µM; in assay [5], 2.76 µM; in assay [6], 2.89 µM; in assay [7], 2.88 µM. For the same compound, the TGI in assay [8] was determined as 3.63 µM; in assay [9], 2.95 µM.

Regarding `OCC1OC(N2CCN(C3OC(CO)C(O)C(O)C3O)CC2)C(O)C(O)C1O` (centres undefined), the TGI in assay [1], in assay [2], in assay [3], in [10], in [4] and in assay [5] was more than 100 µM in each case. The TGI in assay [6], in assay [7] and in [9] was more than 100 µM throughout.

`O=C(COc1ccc(Cl)cc1Cl)NNc1ccc([N+](=O)[O-])cc1`: the GI50 is 81.6 µM in [1]; more than 100 µM in [2]; more than 100 µM in assay [3]; 25 µM in [10]; 17 µM in [4]; 53.3 µM in assay [5]. The figures for the GI50 in [6], in [7] and in assay [9] were more than 100 µM, 30.1 µM and 25.6 µM, respectively. The TGI in [1] was more than 100 µM; in [2] it was more than 100 µM; in [3], more than 100 µM; in assay [10], 95.6 µM; in assay [4] it was 39.9 µM; in assay [5] it was more than 100 µM. In addition, the values for the TGI in assay [6], in assay [7] and in assay [9] were more than 100 µM, 74.2 µM and 61.2 µM, respectively.

For `[N-]=[N+]=NCCCn1c2c(c3ccccc3c1=O)C(=O)c1cc3c(cc1-2)OCO3`, the GI50 in [1] was 19.6 µM; in [3] it was more than 100 µM; in [4], more than 100 µM; in assay [5], 76 µM; in assay [6], more than 100 µM; in assay [7], 45.3 µM. Moreover, the GI50 was 8.3 µM in [8] and 31.9 µM in assay [9]. In addition, the TGI in assay [1], in assay [3], in assay [4], in assay [5], in [6] and in assay [7] was more than 100 µM each time. The TGI in assay [8] and in assay [9] was more than 100 µM each time.

For `Nc1ncnc2c1ncn2Cc1ccc(CCl)cc1`, the GI50 in assay [3] was 14.3 µM; in assay [10] it was 16 µM; in assay [4] it was 20.3 µM; in assay [5], 19 µM; in [6], 15.4 µM; in assay [7], 18.1 µM. For the same compound, the GI50 in assay [8] was 24.3 µM; in [9] it was 27.5 µM. Further, the TGI in assay [3] was 31.7 µM; in [10], 37.8 µM; in assay [4], 62.2 µM; in assay [5], 50.7 µM; in assay [6] it was 32.9 µM; in assay [7] it was 65.7 µM. The values for the TGI in assay [8] and in assay [9] were more than 100 µM and 73.6 µM, respectively.

Consider `CCN(CC(O)COc1ccc2c(c1)[n+]([O-])nc(N)[n+]2[O-])C(C)=O` (centres undefined), for which the TGI in assay [1], in [2], in assay [3], in assay [10], in assay [5] and in assay [6] was more than 100 µM in each case. For the same compound, the TGI in assay [7], in assay [8] and in assay [9] was more than 100 µM in each case.

As to `Cc1cc(S(=O)(=O)Nc2nc3ccccc3s2)c(SCc2ccccc2)cc1Cl`, the GI50 in assay [3] is 8 µM; in assay [10], 28.2 µM; in assay [4], 23.8 µM; in assay [5], 15.5 µM; in [6], 15.7 µM; in assay [7] it was 14.1 µM. For the same compound, the GI50 in assay [8] is 13.1 µM; in assay [9], 16.9 µM. In addition, the TGI in assay [3] is 23.3 µM; in assay [10], more than 100 µM; in assay [4], 49.7 µM; in assay [5] it was 36.9 µM; in [6], 31.7 µM; in assay [7] it was 44.7 µM. Besides, the values for the TGI in assay [8] and in assay [9] were 51.3 µM and 32.1 µM, respectively.

As for `O=C(O)[C@@H](Cc1ccccc1)NS(=O)(=O)c1ccc(-c2ccccc2)cc1`, the GI50 in assay [1], in assay [2], in [3], in assay [10], in assay [5] and in assay [6] was more than 100 µM throughout. For the same compound, the GI50 in [7], in [8] and in assay [9] was more than 100 µM in each case. The TGI in assay [1], in [2], in assay [3], in assay [10], in assay [5] and in assay [6] was more than 100 µM each time. The TGI in assay [7], in assay [8] and in [9] was more than 100 µM throughout.

Turning to `Nc1nc(N)c2c(n1)NC(c1ccc(Cl)cc1)C1CCc3ccccc3C1=N2` (centres undefined), the GI50 in assay [2] was 4.31 µM; in assay [3], 6.46 µM; in [10], 16.8 µM; in assay [4] it was 4.68 µM; in assay [5], 11.2 µM; in assay [6] it was 4.72 µM. Also, the GI50 in assay [7] was 8.2 µM; in [9], 11.8 µM. In addition, the TGI in assay [2] was 18 µM; in assay [3] it was 19 µM; in assay [10], 30.4 µM; in [4] it was 19.1 µM; in assay [5] it was 23.3 µM; in assay [6] it was 19.6 µM. For the same compound, the results for the TGI in [7] and in [9] were 23.2 µM and 24.1 µM, respectively.

Turning to `CNC(=O)c1cc(Oc2ccc(NC(=O)Nc3ccc(Cl)c(C(F)(F)F)c3)cc2)ccn1`, the GI50 was 2.38 µM and 3.15 µM and 2.87 µM in assay [1]; 2.54 µM and 2.45 µM and 2.36 µM in [2]; 4.75 µM and 4.38 µM and 3.47 µM in [10]; 3.58 µM and 2.88 µM and 3.41 µM in assay [4]; 4.55 µM and 3.04 µM and 3.11 µM in assay [5]; 1.96 µM and 1.82 µM and 1.84 µM in [6]. Besides, the GI50 in [7] was 4.41 µM and 3.83 µM and 4.48 µM; in [8], 3.18 µM and 4.35 µM and 2.27 µM; in [9] it was 4.04 µM and 3 µM and 3.42 µM. The TGI in [2] is > 10 µM and 8.39 µM and 9.02 µM; in assay [10], > 10 µM and 17.7 µM and 11.8 µM; in assay [4], > 10 µM and 9.26 µM and 9.86 µM; in [5] it was > 10 µM and 9.33 µM and 10.7 µM; in assay [6], 5.74 µM and 4.33 µM and 4.92 µM; in assay [7] it was > 10 µM and 9.96 µM and 20.2 µM. Besides, the TGI in assay [8] was > 10 µM and > 100 µM and 16.7 µM; in assay [9], > 10 µM and 9.4 µM and 13.2 µM.

For the compound `Fc1ccc(Nc2ccnc(N3CCN(c4ccnc5cc(Cl)ccc45)CC3)n2)cc1`, the GI50 is 2.76 µM in [1]; 1.46 µM in assay [2]; 2.53 µM in assay [3]; 3.99 µM in assay [10]; 3.39 µM in assay [4]; 3.96 µM in assay [5]. For the same compound, the GI50 was 1.93 µM in [6], 2.74 µM in assay [8] and 2.28 µM in [9]. Further, the TGI in assay [1] was 8.37 µM; in assay [2] it was 3.14 µM; in [3] it was 7.38 µM; in assay [10], more than 100 µM; in assay [4], 72.3 µM; in assay [5], 55.1 µM. In addition, the TGI in assay [6] turned out to be 4.92 µM; in [8], 10.5 µM; in assay [9], 6.26 µM.

For the compound `Cc1cc(C2CC(O)C(CO)O2)c(Br)cc1Br` (centres undefined), the GI50 was 99.1 µM in assay [2]; more than 100 µM in assay [3]; more than 100 µM in assay [10]; more than 100 µM in assay [4]; more than 100 µM in assay [5]; more than 100 µM in assay [6]. Further, the GI50 in assay [7], in assay [8] and in assay [9] was more than 100 µM each time. Also, the TGI in assay [2], in assay [3], in [10], in assay [4], in assay [5] and in [6] was more than 100 µM in each case. Further, the TGI in assay [7], in [8] and in assay [9] was more than 100 µM in each case.

Turning to `O=C(Nc1ccn(C2CCC(COC(c3ccccc3)(c3ccccc3)c3ccccc3)O2)c(=O)n1)c1ccccc1` (centres undefined), the TGI is 5.16 µM in [1]; 6.09 µM in [2]; 6.47 µM in assay [3]; 14.8 µM in assay [10]; 11.1 µM in assay [4]; 15.5 µM in assay [5]. Further, the TGI in [6] is 10.6 µM; in assay [8], 9.04 µM; in assay [9], 6.41 µM.
